Entries after “also recorded” stand apart in the source; their conditions may differ.
Assays:
[1] = solubility observed when preparing stock solutions; format: physicochemical; conditions: in water / medium; stock of 2 mM feasible with Tween80 and DMSO
Description: Hereafter, the stock solutions of the compounds were used in three repetitions in a minimal inhibitory concentration (MIC) assay at a 2-fold dilution range with various bacteria from the gram-positive and gram-negative group and a yeast, Candida albicans. The concentrations that show only less than 10% growth after 24 h were considered the MIC90-values, whereas the concentrations that show 50% growth after 24 h when compared to the bacterial growth control were considered the MIC50-values. Escherichia coli and Staphylococcus aureus were used as representatives for a gram-negative bacteria and gram-positive bacteria, respectively. Furthermore, the yeast C. albicans was also tested.
Conclusion and discussion. […] With the addition of solvents like Tween80 and DMSO a stock solution in medium of 2 mM was feasible. This allowed a maximum of testing concentration of 1 mM. […] Therefore, with the application of solvents a maximum testing concentration of 0.575 mM was possible. If the real growth-inhibiting concentration (MIC90) lies above these maximum assay concentrations, then it would not be detected in this assay.

[2] = test system: AMR Staphylococcus aureus LUH14616 persisters; assay: Anti-persister experiment, antibiotics-exposed mature biofilm; format: cell-based; conditions: after 3 days rifampicin and ciprofloxacin, 24 hrs exposure, FIG. 25
Description: Experimental design. The capacity of AM-2 (Bis(4-chlorophenyl) disulfide) and AM-8 to reduce bacterial counts in mature biofilms was assessed as described earlier (Scheper et al (2021) Scheper H, Wubbolts J M, Verhagen J A M, de Visser A W, van der Wal RJJP, Visser L G, de Boer M J G, and Nibbering P H. SAAP-148 eradicates MRSA persisters within mature biofilm models simulating prosthetic joint infection. Front. Microbiol. 12:625952. Doi: 10.3389/fmicb.2021.625952. eCollection 2021) with one modification, i.e., the biofilms were exposed daily to the compounds for up to 4 consecutive days. Briefly, antimicrobial resistant (AMR) Staphylococcus aureus LUH14616 were cultured to mid-log phase in tryptic soy broth (TSB; Oxoid Ltd, Basingstoke, UK) at 37° C. and 200 rpm, centrifuged for 10 min at 3,000 rpm and then resuspended in brain heart infusion broth (BHI; Oxoid Ltd, Basingstoke, UK). Next, approximately 1×10^7 CFU bacteria in BHI were cultured in a 96-well flat-bottom polystyrene microplate sealed with breathable seal for 7 days. […] To take possible slow-growing bacteria into account we analyzed the bacterial plates again after a week. Results are expressed as the number of surviving bacteria (CFU/ml).

[3] = test system: Staphylococcus aureus LUH14616; assay: Resistance development on repeated exposure (19 passages); format: cell-based
Description: Experimental design. Potential resistance to AM-8 was assessed as described by Habets and Brockhurst (2012) (Therapeutic antimicrobial peptides may compromise natural immunity. Biol Lett 8:416-418). Briefly, log phase bacteria (S. aureus LUH 14616) were diluted in RPMI-mod to a concentration of 2×10^6 CFU/ml. Next, 50 μl of this bacterial suspension were mixed with 50 μl of a range of dilutions of AM-8 or—as comparator-rifampicin in v-bottom 96-wells plates. Thereafter, the plates were covered with a plastic seal and incubated for 24 hrs at 37° C. in a shaking incubator (200 rpm). The plates were then centrifuged for 5 min at 2,000 rpm and the growth inhibition was determined. To start the resistance development testing, 100 μl of a mid-log bacterial suspension containing 2×10^6 CFU/ml were mixed with 150 μl of RPMI-mod and 5 μl of this diluted bacterial suspension were applied to v-bottom wells containing a dilution range of AM-8 or antibiotics (various concentrations below and above MIC) in RPMI-mod (RPMI 1640 modified with 20 mM Hepes and L-glutamine and without sodium bicarbonate (Sigma-Aldrich); further referred to as RPMI-mod). After 24 hrs at 37° C. in a shaking incubator (200 rpm) the growth inhibition was determined. 100 μl of the bacterial suspension from the 0.5×MIC wells were mixed with 150 μl of RPMI-mod and 5 μl of the diluted bacterial suspension were used to inoculate a new 96-wells plate containing a dilution series of AM-8 or rifampicin, and these mixtures were then incubated as described above. If resistance developed, the concentration range of AM-8 and/or antibiotic was adjusted accordingly. This was repeated 19 times. Results are expressed as the fold-increase in MIC compared to the MIC at the start of the experiment.

[4] = test system: Staphylococcus aureus LUH14616 mature biofilms; assay: Biofilm eradication assay, 7-day mature biofilms; format: cell-based; conditions: 7-day mature biofilm
Description: Biofilm eradication assay. The assay to reduce bacterial counts in mature biofilms was assessed as described earlier (Scheper H J, Wubbolts J M, Verhagen J A M, de Visser A W, van der Wal R J P, Visser L G, de Boer M J J G, and Nibbering P H. SAAP-148 eradicates MRSA persisters within mature biofilm models simulating prosthetic joint infection. Front. Microbiol. 12:625952. Doi: 10.3389/fmicb.2021.625952. eCollection 2021) with a single modification, i.e., the biofilms were exposed daily to AM-8 for up to 4 consecutive days. Briefly, approximately 1×10^7 CFU logarithmic phase bacteria in BHI were cultured in a 96-well flat-bottom polystyrene microplate sealed with breathable seal for 7 days. Next, mature biofilms were washed twice with PBS, then exposed for 24 hrs to AM-8 or as control the diluent of this compound. Hereafter the biofilms were washed and either re-exposed to AM-8/its diluent for another day or—in case of termination of the daily exposures-sonicated for microbiological quantification of the number of viable bacteria. Results are expressed as the number of surviving bacteria at the various days of exposure. Experiment was performed in triplicate.

Clc1ccc(SSc2ccc(Cl)cc2)cc1 [Bis (4-chlorophenyl) disulfide, Bis(4-chlorophenyl) disulfide]
solubility (observed) [1]: low solubility
effect on persisters within antibiotics-exposed mature biofilm [2]: at the highest dose was effectively against persisters

CC(C)SS(=O)(=O)C(C)C [Di-isopropyl thiosulfonate]
resistance development ([3]; 19 passages, listed as AM-8): no resistance development; also recorded: little/no resistance
fold-increase in MIC compared to the MIC at the start ([3]; within 19 passages, two batches, seen occasionally): ≤ 2 fold
bacterial counts in mature biofilms, multiple daily exposures ([4]; daily exposure up to 4 days, FIG. 24, listed as AM-8): dose-dependently significantly reduced the bacterial counts in mature biofilms; also recorded: able to eliminate all bacteria within biofilms
biofilm reducing effect of a single dose ([4]; dose range study, results not shown): increased in time without fully eradicating the bacteria within the biofilm

Source: US20260083126A1, “ANTIMICROBIAL COMPOSITIONS” (AHV International B.V., priority 2022, published 2026)
